In brackets after ≈: the same amount, converted by molar mass. Entries after “also recorded” stand apart in the source; their conditions may differ. Read-outs that look alike come from different tables or passages of the source.
How the values were obtained:
[1] = test system: ColH; conditions: Figure 1b, cited from earlier work
[2] = test system: MDCK II cells infected with B. cereus AH187; type: cell-based, canine
[3] = target: ColQ1-FL (Bacillus cereus, UniProt B9J3S4); type: biochemical; conditions: 12.5–1.5 μM tested, SDS-PAGE
[4] = test system: B. cereus AH187; experiment: B. cereus growth inhibition assay; type: cell-based; conditions: Bacillus cereus, read-out: MIC50 (µM) AH187
[5] = test system: B. cereus collagenases released in the NHDF infection model; type: cell-based, B. cereus AH187
[6] = target: T1, ColQ1-CU (Bacillus cereus, UniProt B9J3S4); experiment: biochemical; design: species or system B. cereus strain Q1
[7] = test system: NHDF cells infected with B. cereus; experiment: NHDF infection model, cell morphology/attachment and fibrillar collagen (picrosirius red); type: cell-based, human
[8] = target: T2, MMP-1 (Homo sapiens, UniProt P03956); experiment: MMP inhibition assay, MMP-1; type: biochemical
T2 construct: catalytic domains of three human MMPs; purchased Sigma-Aldrich
T2 sequence (P03956 98-276 limits assumed): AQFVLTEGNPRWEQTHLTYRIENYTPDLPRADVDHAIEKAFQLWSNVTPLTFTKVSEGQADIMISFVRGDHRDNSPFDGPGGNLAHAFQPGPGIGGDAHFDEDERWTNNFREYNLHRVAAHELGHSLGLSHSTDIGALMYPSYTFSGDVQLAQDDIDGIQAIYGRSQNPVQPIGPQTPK
Description: (§1) To assess the selectivity of the compounds over human MMPs and on other bacterial collagenases, selected compounds were tested against ColG-CU and ColH-PD from C. histolyticum and ColA-CU from B. cereus strain ATCC14579. In addition, the compounds were tested on catalytic domains of three human MMPs, which are characterized by different depths of the S1′ binding pocket (MMP-1 (shallow), −2 (intermediate), and −3 (deep)). They were also tested against other important human off-targets, which are involved in gene expression and the processing of TNF-α; these include HDAC-3, -8, TACE (ADAM-17),[33],[34] and COX-1.
(§2) The MMP inhibition assay (Sigma-Aldrich, Saint Louise, MO) was performed as previously reported and in accordance with the manufacturer’s instructions. The fluorescence signals were measured in a CLARIOstar plate reader (BMG LABTECH, Ortenberg, Germany) at a concentration of 100 μM.

[9] = in vitro; conditions: human, NHDF cells (normal human dermal fibroblasts)
[10] = target: COX-1 (Homo sapiens, UniProt P23219); experiment: Human off-target inhibition, COX-1; type: biochemical
Description: as §1

[11] = target: T1, ColQ1-CU; type: biochemical, B. cereus; conditions: for Reversibility of inhibition, ColQ1-CU: rapid dilution
[12] = target: T3, ColG-CU (Hathewaya histolytica, UniProt Q9X721); type: biochemical, C. histolyticum; conditions: rapid dilution
[13] = in vitro; conditions: dog, MDCK II cells (Madin–Darby canine kidney II)
[14] = in vitro; conditions: human, HEK293 cells (embryonal kidney)
[15] = target: T4, ColA-CU (Bacillus cereus, UniProt Q81BJ6); type: biochemical, B. cereus; conditions: rapid dilution
[16] = target: T5, HDAC-8 (Homo sapiens, UniProt Q9BY41); experiment: Human off-target inhibition, HDAC-8; type: biochemical
T5 sequence (Q9BY41 1-377): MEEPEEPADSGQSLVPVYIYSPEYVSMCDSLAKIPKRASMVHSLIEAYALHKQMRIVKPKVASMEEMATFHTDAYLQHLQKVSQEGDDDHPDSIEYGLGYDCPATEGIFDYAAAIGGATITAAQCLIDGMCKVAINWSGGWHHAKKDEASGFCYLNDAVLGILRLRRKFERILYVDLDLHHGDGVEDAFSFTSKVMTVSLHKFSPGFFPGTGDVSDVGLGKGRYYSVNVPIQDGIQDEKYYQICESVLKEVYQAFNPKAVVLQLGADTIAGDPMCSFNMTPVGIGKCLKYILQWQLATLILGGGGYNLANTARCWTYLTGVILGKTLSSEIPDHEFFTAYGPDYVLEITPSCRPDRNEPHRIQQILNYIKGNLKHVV
Description: as §1

[17] = target: T3, ColG-CU; experiment: biochemical; type: biochemical, C. histolyticum; conditions: for inhibition at 100 µM: read-out: Percent inhibition of ColG-CU
[18] = target: TACE (ADAM-17) (Homo sapiens, UniProt P78536); experiment: Human off-target inhibition, TACE; type: biochemical
Description: as §1

[19] = target: T6, MMP-2 (Homo sapiens, UniProt P08253); experiment: MMP inhibition assay, MMP-2; type: biochemical
T6 construct: catalytic domains of three human MMPs; purchased Sigma-Aldrich
Description: as §1, §2

[20] = test system: B. cereus AH187 infection; type: in vivo, Galleria mellonella; conditions: for Increase in survival of infected larvae: 100 μM; for Survival of infected larvae vs control without inhibitor: 37 °C, 3 days
[21] = target: T7, ColH-PD (Hathewaya histolytica, UniProt Q46085); experiment: biochemical; type: biochemical, C. histolyticum; conditions: for inhibition at 100 µM: read-out: Percent inhibition of ColH-PD
[22] = target: HDAC-3 (Homo sapiens, UniProt O15379); experiment: Human off-target inhibition, HDAC-3; type: biochemical
Description: as §1

[23] = in vitro; conditions: human, HepG2 cells (hepatocellular carcinoma)
[24] = target: T8, MMP-3 (Homo sapiens, UniProt P08254); experiment: MMP inhibition assay, MMP-3; type: biochemical
T8 construct: catalytic domains of three human MMPs; purchased Sigma-Aldrich
Description: as §1, §2

[25] = target: T7, ColH-PD; type: biochemical, C. histolyticum
[26] = target: T4, ColA-CU; experiment: biochemical; type: biochemical, B. cereus strain ATCC14579; conditions: for inhibition at 100 µM: read-out: Percent inhibition of ColA-CU
[27] = target: T1, ColQ1-CU; type: binding, B. cereus; conditions: intact protein HPLC-MS, overnight treatment
[28] = test system: Galleria mellonella larvae; experiment: Galleria mellonella larvae treated with compound only in PBS; type: in vivo; conditions: no bacteria
Description: Figure 8 Survival analysis of Galleria mellonella larvae treated with Bacillus cereus AH187 with and without 14 and tiludronate disodium. Each curve represents results of three independent experiments; the statistical difference between groups treated with 100, 50, and 25 μM of compound 14 and B. cereus AH187 and with the group treated only with B. cereus AH187 is p < 0.0001, p = 0.0039, and p = 0.0173, respectively. The statistical difference between groups treated with 100 μM tiludronate disodium and with B. cereus AH187 is p = 0.0032 (log-rank test). The survival rate for the larvae treated with compound 14 and tiludronate disodium in PBS was 100%.
G. mellonella larvae were purchased from a fishing store. Injections were carried out using an LA120 syringe pump (Landgraf Laborsysteme, Langenhagen, Germany) equipped with 1 mL Injekt-F tuberculin syringes (B. Braun, Melsungen, Germany) and Sterican 0.30 × […], 30 G × 1.5 needles (B. Braun). The larvae were divided into five groups depending on their treatment: (i) sterile PBS, (ii) no injection, (iii) only compound, (iv) BC AH187 bacterial suspension, and (v) BC AH187 bacterial suspension with compound. Larvae were incubated at 37 °C for 3 days and inspected twice daily. The total larvae used in all three experiments were 40 larvae per group.

[29] = AH187, BHI medium, 37 °C, 48 h, 200–3 μM

T7 sequence (Q46085 331-721 limits assumed): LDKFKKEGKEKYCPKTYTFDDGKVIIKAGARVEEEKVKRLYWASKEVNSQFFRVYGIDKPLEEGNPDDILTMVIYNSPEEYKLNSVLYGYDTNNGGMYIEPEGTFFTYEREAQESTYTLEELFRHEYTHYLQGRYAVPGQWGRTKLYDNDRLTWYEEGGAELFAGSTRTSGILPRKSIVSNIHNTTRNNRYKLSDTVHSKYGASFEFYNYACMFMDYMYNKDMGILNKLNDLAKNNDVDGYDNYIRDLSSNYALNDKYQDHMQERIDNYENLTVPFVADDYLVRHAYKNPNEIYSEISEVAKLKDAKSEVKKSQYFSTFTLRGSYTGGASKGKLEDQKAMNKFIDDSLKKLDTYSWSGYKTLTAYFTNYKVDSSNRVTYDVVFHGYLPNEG
T3 sequence (Q9X721 111-786): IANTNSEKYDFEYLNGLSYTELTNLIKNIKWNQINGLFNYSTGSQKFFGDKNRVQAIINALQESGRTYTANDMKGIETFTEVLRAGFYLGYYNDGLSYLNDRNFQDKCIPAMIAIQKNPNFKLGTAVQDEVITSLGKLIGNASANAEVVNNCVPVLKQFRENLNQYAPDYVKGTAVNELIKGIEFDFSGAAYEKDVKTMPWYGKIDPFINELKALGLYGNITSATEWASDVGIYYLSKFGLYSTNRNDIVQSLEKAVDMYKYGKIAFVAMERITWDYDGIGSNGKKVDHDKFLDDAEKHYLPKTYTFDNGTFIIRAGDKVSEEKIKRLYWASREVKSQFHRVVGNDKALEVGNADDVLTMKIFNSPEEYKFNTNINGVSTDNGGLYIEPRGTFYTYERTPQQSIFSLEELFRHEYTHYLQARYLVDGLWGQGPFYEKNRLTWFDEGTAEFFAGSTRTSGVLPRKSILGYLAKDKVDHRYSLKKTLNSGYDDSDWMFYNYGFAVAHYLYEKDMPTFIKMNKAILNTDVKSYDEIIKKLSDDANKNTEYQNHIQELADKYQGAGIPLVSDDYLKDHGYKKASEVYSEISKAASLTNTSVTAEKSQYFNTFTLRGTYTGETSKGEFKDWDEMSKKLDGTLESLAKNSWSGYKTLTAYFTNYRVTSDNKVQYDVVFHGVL
T4 sequence (Q81BJ6 93-764): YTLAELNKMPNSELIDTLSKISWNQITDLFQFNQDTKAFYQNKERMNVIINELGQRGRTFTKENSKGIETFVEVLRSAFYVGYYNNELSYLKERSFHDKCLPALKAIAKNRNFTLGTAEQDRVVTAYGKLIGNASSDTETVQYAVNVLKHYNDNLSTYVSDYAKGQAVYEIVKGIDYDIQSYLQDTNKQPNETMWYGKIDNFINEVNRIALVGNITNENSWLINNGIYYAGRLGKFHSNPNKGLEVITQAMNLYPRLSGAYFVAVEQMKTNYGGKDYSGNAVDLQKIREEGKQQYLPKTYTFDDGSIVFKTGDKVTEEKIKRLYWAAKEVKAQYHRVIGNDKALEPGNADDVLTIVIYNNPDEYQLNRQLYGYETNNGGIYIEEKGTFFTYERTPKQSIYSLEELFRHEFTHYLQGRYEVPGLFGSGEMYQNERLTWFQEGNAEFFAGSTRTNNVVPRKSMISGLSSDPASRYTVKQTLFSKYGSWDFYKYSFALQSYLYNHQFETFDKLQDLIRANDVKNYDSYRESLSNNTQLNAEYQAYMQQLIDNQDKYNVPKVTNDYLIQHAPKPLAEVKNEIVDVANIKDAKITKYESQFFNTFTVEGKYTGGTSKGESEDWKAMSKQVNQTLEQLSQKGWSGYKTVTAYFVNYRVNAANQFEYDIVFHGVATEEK
T1 sequence (B9J3S4 94-765 limits assumed): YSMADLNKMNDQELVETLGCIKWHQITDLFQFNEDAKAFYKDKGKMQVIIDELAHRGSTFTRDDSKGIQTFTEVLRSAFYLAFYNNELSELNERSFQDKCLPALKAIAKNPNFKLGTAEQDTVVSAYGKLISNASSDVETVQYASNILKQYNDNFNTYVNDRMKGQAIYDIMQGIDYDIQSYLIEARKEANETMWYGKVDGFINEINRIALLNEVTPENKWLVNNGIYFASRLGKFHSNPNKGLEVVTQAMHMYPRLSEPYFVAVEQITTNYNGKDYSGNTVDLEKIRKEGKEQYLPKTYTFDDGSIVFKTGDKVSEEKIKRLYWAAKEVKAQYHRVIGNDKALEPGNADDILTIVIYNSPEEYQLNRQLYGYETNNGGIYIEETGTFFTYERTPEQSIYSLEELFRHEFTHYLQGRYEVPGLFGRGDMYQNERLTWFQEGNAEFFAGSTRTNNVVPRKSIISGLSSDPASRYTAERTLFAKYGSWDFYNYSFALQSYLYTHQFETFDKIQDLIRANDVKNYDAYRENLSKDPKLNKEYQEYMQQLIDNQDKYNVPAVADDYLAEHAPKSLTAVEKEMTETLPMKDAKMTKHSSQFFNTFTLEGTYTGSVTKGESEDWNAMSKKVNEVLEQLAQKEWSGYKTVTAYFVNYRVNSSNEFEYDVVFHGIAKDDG
T6 sequence (P08253 110-444 limits assumed): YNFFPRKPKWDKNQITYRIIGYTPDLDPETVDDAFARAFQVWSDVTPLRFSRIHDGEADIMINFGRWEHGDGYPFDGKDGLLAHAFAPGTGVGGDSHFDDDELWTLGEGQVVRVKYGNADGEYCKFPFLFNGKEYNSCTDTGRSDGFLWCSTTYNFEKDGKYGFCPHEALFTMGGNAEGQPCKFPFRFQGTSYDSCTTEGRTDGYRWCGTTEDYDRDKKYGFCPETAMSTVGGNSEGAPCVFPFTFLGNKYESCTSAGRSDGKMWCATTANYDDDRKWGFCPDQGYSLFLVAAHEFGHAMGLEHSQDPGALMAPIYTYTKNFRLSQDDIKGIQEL
Sequence of COX-1 (P23219 24-599): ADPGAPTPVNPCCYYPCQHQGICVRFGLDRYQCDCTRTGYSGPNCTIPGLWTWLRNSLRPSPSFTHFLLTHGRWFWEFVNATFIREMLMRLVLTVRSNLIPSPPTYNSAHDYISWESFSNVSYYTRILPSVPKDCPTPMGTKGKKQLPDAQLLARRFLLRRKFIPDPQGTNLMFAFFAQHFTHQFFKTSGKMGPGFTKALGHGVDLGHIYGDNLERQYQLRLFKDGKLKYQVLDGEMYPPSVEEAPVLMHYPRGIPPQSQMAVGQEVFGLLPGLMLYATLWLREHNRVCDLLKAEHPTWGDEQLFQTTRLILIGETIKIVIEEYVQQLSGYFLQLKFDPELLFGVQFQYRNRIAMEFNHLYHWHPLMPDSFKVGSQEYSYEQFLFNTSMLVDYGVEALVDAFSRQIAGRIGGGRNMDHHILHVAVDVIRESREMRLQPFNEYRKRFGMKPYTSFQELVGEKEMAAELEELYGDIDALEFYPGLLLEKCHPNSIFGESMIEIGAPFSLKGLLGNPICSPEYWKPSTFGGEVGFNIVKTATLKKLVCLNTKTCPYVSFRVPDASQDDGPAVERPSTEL
Sequence of HDAC-3 (O15379 whole entry): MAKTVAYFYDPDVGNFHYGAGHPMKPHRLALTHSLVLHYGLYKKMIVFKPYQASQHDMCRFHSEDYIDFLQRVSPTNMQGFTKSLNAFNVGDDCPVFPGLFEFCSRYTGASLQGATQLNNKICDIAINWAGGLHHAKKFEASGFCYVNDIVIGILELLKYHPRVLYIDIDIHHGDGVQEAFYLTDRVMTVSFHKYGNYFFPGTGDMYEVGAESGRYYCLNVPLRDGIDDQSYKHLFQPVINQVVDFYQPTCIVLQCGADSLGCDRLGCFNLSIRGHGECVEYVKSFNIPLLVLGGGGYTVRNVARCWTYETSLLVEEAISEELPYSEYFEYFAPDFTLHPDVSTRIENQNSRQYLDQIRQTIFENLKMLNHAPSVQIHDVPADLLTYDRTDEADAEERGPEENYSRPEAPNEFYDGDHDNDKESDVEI
Sequence of HDAC-3 (Q9Y618 395-489 partner limits assumed): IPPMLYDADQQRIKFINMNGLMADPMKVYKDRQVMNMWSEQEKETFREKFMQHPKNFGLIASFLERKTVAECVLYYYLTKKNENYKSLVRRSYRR
Sequence of TACE (ADAM-17) (P78536 215-824): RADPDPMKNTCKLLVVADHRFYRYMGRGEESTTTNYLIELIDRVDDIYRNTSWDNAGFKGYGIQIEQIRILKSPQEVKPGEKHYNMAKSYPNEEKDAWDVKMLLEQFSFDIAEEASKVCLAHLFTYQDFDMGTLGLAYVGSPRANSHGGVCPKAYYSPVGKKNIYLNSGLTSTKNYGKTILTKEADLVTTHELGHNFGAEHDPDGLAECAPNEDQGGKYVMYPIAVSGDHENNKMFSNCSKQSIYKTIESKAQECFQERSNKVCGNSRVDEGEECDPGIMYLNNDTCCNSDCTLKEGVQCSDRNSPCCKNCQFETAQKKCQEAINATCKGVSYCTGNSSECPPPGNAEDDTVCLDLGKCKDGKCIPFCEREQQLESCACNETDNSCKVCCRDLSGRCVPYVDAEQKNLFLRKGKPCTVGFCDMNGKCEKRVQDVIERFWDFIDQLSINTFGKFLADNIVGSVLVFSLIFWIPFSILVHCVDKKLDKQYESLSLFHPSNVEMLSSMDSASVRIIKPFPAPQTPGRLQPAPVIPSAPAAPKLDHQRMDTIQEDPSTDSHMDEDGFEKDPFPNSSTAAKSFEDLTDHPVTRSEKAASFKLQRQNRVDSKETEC
T8 sequence (P08254 100-272 limits assumed): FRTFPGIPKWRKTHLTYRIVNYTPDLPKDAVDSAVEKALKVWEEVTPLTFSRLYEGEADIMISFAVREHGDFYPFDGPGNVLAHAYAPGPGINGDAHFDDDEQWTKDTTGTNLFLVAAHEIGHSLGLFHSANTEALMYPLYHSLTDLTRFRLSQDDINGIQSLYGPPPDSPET

CC(=O)c1ccc(NC(=O)CS)cc1 [Compound 4b]
IC50 ([1]; recently identified inhibitors): 0.017 µM

CC(=O)c1ccc(N2C(=O)CC(S)C2=O)cc1 (centres unmarked) [Compound 5]
% of inhibition at 100 μM (ColH) ([1]; 100 μM): 96%

O=P(O)(O)c1nc2ccc(Br)cc2nc1P(=O)(O)O [Compound 10, (6-Bromoquinoxaline-2,3-diyl)bis(phosphonic acid)]
TEER of infected MDCK II cells [2]: failed to sustain the TEER of the infected cells | Protection of Col I chains from cleavage by ColQ1-FL [3]: showed inhibition only at 12.5 μM | MIC50 [4, 29]: 200 µM (≈ 73.8 µg/mL) | Inhibitory effect on gelatinolytic activity of secreted collagenases [5]: inhibited the collagenase activity toward gelatin only marginally at 100 μM | IC50 [6]: 2.5 ± 0.2 µM | Effect on cell morphology and ECM collagen content of infected NHDF cells ([7]; B. cereus infection, 5 h): smaller effect at all concentrations tested (except for 10, which resulted in higher cell viability and attachment at 100 μM)

O=P(O)(O)c1nc2ccc(-c3ccc(Cl)cc3)cc2nc1P(=O)(O)O [Compound 15, (6-(4-Chlorophenyl)quinoxaline-2,3-diyl)bis(phosphonic acid)]
IC50 [8]: > 100 µM | TEER of infected MDCK II cells [2]: preserve the TEER value | IC50 [9]: > 200 µM | IC50 [10]: > 100 µM | Residual activity after rapid dilution ([11]; 30 min preincubation at 10-fold IC50, 100-fold dilution): less than 9% | Reversibility of inhibition, ColQ1-CU [11]: irreversible or very slowly dissociating inhibitors | Reversibility of inhibition, ColG [12]: rapidly reversible inhibitors | IC50 [13]: > 200 µM | IC50 [14]: > 100 µM | Protection of Col I chains from cleavage by ColQ1-FL [3]: inhibited the collagenase activity at all concentrations tested | Reversibility of inhibition, ColA-CU [15]: progress curve typical for slowly dissociating inhibitors | IC50 [16]: > 100 µM | inhibition at 100 µM [17]: 70 ± 8% | IC50 [18]: > 100 µM | IC50 [19]: > 100 µM | Effect on survival of infected larvae ([20]; 25 μM): reduced effect | Increase in survival of infected larvae [20]: about 35% | Survival of infected larvae vs control without inhibitor [20]: ameliorated the survival of the larvae in a dose-dependent manner | inhibition at 100 µM [21]: 97 ± 5% | MIC50 [4, 29]: 100 µM (≈ 40.1 µg/mL) | IC50 [22]: > 100 µM | IC50 [23]: > 100 µM | IC50 [24]: > 100 µM | Inhibitory effect on gelatinolytic activity of secreted collagenases [5]: clear dose-dependent inhibitory effect on gelatin turnover | Reversibility of inhibition, ColH [25]: reversed compared to ColA | IC50 [6]: 10.5 µM | Concentration showing dose-dependent effects on NHDF morphology, fibrillar ECM collagen content and LDH release ([7]; B. cereus infection, 5 h): ≥ 100 μM | inhibition at 100 µM [26]: 86 ± 8%

CC(=O)Nc1ccccc1OCc1cn(CCNC(=O)C(Cc2ccccc2)C(=O)NO)nn1 (centres unmarked) [Compound 33, N-[2-[4-[(2-Acetamidophenoxy)methyl]triazol-1-yl]ethyl]-2-benzyl-3-(hydroxyamino)-3-oxo-propanamide]
Reversibility of inhibition, ColQ1-CU [11]: rapidly reversible inhibitors | Reversibility of inhibition, ColG [12]: rapidly reversible inhibitors | Reversibility of inhibition, ColA-CU [15]: rapidly reversible inhibitors | Ki [17]: 18.4 ± 0.6 µM | Ki [21]: 1.7 ± 0.2 µM | Inhibitory effect on gelatinolytic activity of secreted collagenases [5]: no inhibitory effect on the collagenase in the zymography at all tested concentrations; also recorded: no inhibition of the collagenase in the gelatin zymography was detected | Reversibility of inhibition, ColH [25]: rapidly reversible inhibitors | IC50 [6]: 1.6 ± 0.1 µM | Ki [6]: 0.82 ± 0.07 µM | Effect on cell morphology and ECM collagen content of infected NHDF cells ([7]; B. cereus infection, 5 h): neither able to rescue cell morphology nor able to maintain the collagen content of the ECM | Ki [26]: 4.7 ± 0.3 µM

CNC(=O)[C@H](Cc1c[nH]c2ccccc12)NC(=O)[C@@H](CC(=O)NO)CC(C)C [Ilomastat, reference compound]
Covalent modification of ColQ1-CU [27]: No molecular masses displayed a mass shift indicating a covalently bound inhibitor

O=P([O-])(O)C(Sc1ccc(Cl)cc1)P(=O)([O-])O.[Na+].[Na+] [Tiludronate disodium, reference compound]
IC50 [8]: 50 ± 10 µM | IC50 [10]: > 100 µM | IC50 [16]: > 100 µM | inhibition at 100 µM [17]: 28 ± 7% | IC50 [18]: > 100 µM | IC50 [19]: > 100 µM | Increase in survival of infected larvae [20]: 40% | Survival of infected larvae vs control without inhibitor [20]: ameliorated the survival of the larvae in a dose-dependent manner | inhibition at 100 µM [21]: 91 ± 2% | MIC50 ([4]; AH187, 48 h): 200 µM | IC50 [22]: > 100 µM | IC50 [24]: > 100 µM | Survival rate of larvae treated with compound in PBS [28]: 100% | Concentration giving complete inhibition of gelatinolytic activity [5]: 100 µM | inhibition at 100 µM [6]: 63 ± 3% | Concentration showing dose-dependent effects on NHDF morphology, fibrillar ECM collagen content and LDH release [7]: ≥ 100 μM | inhibition at 100 µM [26]: 72 ± 2%
